In patent publication US20150329505A1, “A FLUORESCENT COMPOSITION FOR USE IN MARKING OBJECTS, SUCH AS FLOWERS” (BIOCONST PTY LTD, priority 2012, published 2015):
Counter-ions that a name gives are not always drawn. Like-named read-outs stand apart in the source and are kept apart here. Each block holds one compound with its values, some of them ahead of it.

What was measured:
[1] = Fluorescence emitted by sprayed flowers when excited by UV light; conditions: 0.1% pyranine, 0.5% sugar, 0.1% sodium bicarbonate, pH 7.72, dried overnight, then 1 mM, 1.5 mM and 2 mM HCl
flowers [2] = conditions: in vivo
Protocol: (§2) The above solutions were prepared by adding the fluorophore to tap water, in order to test the properties of the fluorophores in a non-sterilised, non-purified aqueous solution. The solutions were placed into a spray device for application to the surface of the relevant plants.
(§3) Solutions were sprayed onto chrysanthemums and roses and allowed to dry overnight at room temperature.

flowers [3] = assay: Effect of sprayed solutions on wilting and vase life of flowers
Protocol: as §2, §3

[4] = Autoclaving of fluorophore solutions; format: physicochemical; conditions: 0.5% (w/v) of the sugar, 0.1% pyranine, 0.1% sodium bicarbonate, autoclaved at 121° C.
Protocol: Fluorophore solution containing sugar caused the increase in growth of bacteria and fungus.
Fluorophore solution was prepared containing 0.1% (w/v) pyranine, 0.5% (w/v) sucrose, 0.1% (w/v) sodium bicarbonate. A similar solution was prepared with the same concentration of fructose. A small quantity of both the solutions prepared was kept aside for future use. Both the solutions were autoclaved at 121° C. in an Atherton Squirrel autoclave. This was then allowed to cool to room temperature and sprayed on flowers. Solutions which were kept aside previously (and which were not auto-claved) were also sprayed onto flowers. A negative control with no spray was also used to monitor vase life.

[5] = Effect of time of UV exposure on fluorescence; format: physicochemical; conditions: 0.1% (w/v) sprayed on flowers, 6 hours, UV torch 50,000 μW/cm2
Protocol: The effect of long term exposure of UV light was tested on flowers sprayed with fluorophore
Flowers were sprayed with 0.1% (w/v) pyranine solution. The flowers were allowed to dry overnight. A UV torch Optimax™ 365, having an intensity of 50,000 μW/cm2 was shone on the sprayed flowers.

chrysanthemum flower = assay: Uptake of fluorophore by cut flowers; format: in vivo; conditions: cut stems in 0.1% (w/v) pyranine, 0.5% (w/v) sucrose overnight
Protocol: (§1) Freshly cut stems of flowers (roses and chrysanthemums) were prepared and the ends of the stems placed in a solution of 0.1% (w/v) pyranine, 0.5% (w/v) sucrose. The cut end of the flowers was left in the solution overnight and uptake of the fluorophore viewed under UVA light.

rose flower = assay: Uptake of fluorophore by cut flowers; format: in vivo; conditions: cut stems in 0.1% (w/v) pyranine, 0.5% (w/v) sucrose overnight
Protocol: as §1

- change of fluorescence colour after acidic spray [1]: no change in colour to fluorescent blue
Structure (SMILES): Cl [HCl]

Structure (SMILES): O=C([O-])O.[Na+] [sodium bicarbonate]
- vase life (flowers [2]): did not affect the vase-life of the flower

Structure (SMILES): COC(=O)c1ccc(O)cc1 [methylparaben]
- wilting and vase life (flowers [2]): caused wilting of the flowers and reduced the vase-life of the flower

Structure (SMILES): O=C1OC2(c3ccc(O)cc3Oc3cc(O)ccc32)c2ccccc21 [Fluorescein, reference compound]
- wilting of flowers and vase life (flowers [2]): caused wilting of flowers and reduced vase life

Structure (SMILES): O=C([O-])c1ccccc1-c1c2cc(Br)c(=O)c(Br)c-2oc2c(Br)c([O-])c(Br)cc12.[Na+].[Na+] [Eosin Y, reference compound]
- wilting of flowers and vase life (flowers [3]; 0.5% (w/v) in tap water, sprayed onto chrysanthemums and roses, dried overnight): caused wilting of flowers and reduced vase life

- appearance of the solution after autoclaving [4]: fluorescent green
Structure (SMILES): OC[C@H]1O[C@@](CO)(O[C@H]2O[C@H](CO)[C@@H](O)[C@H](O)[C@H]2O)[C@@H](O)[C@@H]1O [sucrose]

Structure (SMILES): O=S(=O)([O-])c1cc(O)c2ccc3c(S(=O)(=O)[O-])cc(S(=O)(=O)[O-])c4ccc1c2c34.[Na+].[Na+].[Na+] [pyranine, 8-Hydroxypyrene-1,3,6-trisulfonic acid trisodium salt]
- change of fluorescence on continuous UV exposure [5]: no visible change in the colour of fluorescence
- uptake of the fluorophore viewed under UVA light (chrysanthemum flower): The veins in the petals of the flower demonstrate fluorescence
- uptake of the fluorophore viewed under UVA light (rose flower): The veins in the petals of the flower demonstrate fluorescence
- vase life of flower (flowers [3]; 0.05% (w/v) in tap water, sprayed onto chrysanthemums and roses): did not affect the vase life of flower
- vase life (flowers [3]; 0.05% to 0.5% (w/v) in tap water): did not affect vase life

- appearance of the solution after autoclaving [4]: dark brown
Structure (SMILES): O=C(CO)[C@@H](O)[C@H](O)[C@H](O)CO [fructose]
